In PMC6645542 (PLoS ONE, 2019):

What was measured:
[1] = target: Thioredoxin glutathione reductase from T. crassiceps (TcTGR) (Taenia crassiceps, UniProt A0ABR4QG96); assay: GSSG-reductase activity of TGR (NADPH oxidation at 340 nm); format: biochemical; conditions: for Recovered activity (%): B: TGR incubated with COP for 5 min, then thiol 50 μM added, control = 100%; for inhibition at 200 µM: 200 μM of the compound, 3 min incubation (Fig 1a), read-out: maximal inhibition of GSSG reductase activity of TcTGR; for IC50: curcumin degradation products, 3 min incubation in TE buffer, 100 μM NADPH, 67 μM GSSG, read-out: IC50, inhibition of GSSG reductase activity of TcTGR
Method: TGR activity was monitored spectrophotometrically by following the decrease in absorbance at 340 nm (ɛ = 6.22 mM^-1cm^-1) due to its NADPH-dependent ability to reduce GSSG [35, 36]. To determine the inhibitory ability of either curcuminoids, curcumin degradation products or curcumin oxidation products we used the following protocols: a) Curcuminoids. An enzyme aliquot (30 μL) was incubated in the presence of 1 μM NADPH; then, a 1.5 μL aliquot of the above mixture was added to 50 μM of the corresponding curcuminoid solution in TE buffer. At different incubation times, a small aliquot containing both NADPH and GSSG was added to start the reaction in a total volume of 600 μL. The enzyme activity of a reaction mixture prepared in the absence of any curcuminoid was taken as 100% relative activity b) Curcumin degradation products (CDP). The enzyme was treated as above and 1.5 μL aliquot of the mixture was added to the corresponding CDP solution at a selected concentration followed by a 2 min incubation period. Then, both NADPH and GSSG were added to start the reaction. The enzyme activity of a reaction mixture prepared in the absence of any CDP was taken as 100% relative activity. c) Curcumin oxidation products (COP). Curcumin final concentration 50 μM was incubated 15 min in TE buffer. Then, both TGR and the substrates NADPH and GSSG were added to start the reaction. Final concentrations of enzyme, NADPH and GSSG were 13 nM, 100 μM and 70 μM respectively. A unit of enzyme activity is defined as the amount of protein needed to oxidize one μmol NADPH per minute at 25°C.

[2] = Spectrophotometrical analysis of stability (absorbance at 426 nm / absorption spectrum); format: physicochemical
Method: Raúl Enriquez (Instituto de Química, UNAM, México). Curcumin 5 mM was dissolved in DMSO and stored at room temperature. […] The protein concentration of the purified enzyme was determined spectrophotometrically by reading the absorbance at 460 nm (ɛ = 11.3 mM^-1cm^-1) due to its FAD content. The absorption spectrum of curcuminoids (curcumin, DMC and BDMC) and the different curcumin degradation products (CDP) FM, V, VA, F-Ad, 4VG, and FA were recorded in a UV/Vis Beckman DU 730 Spectrophotometer. […] The detection of the curcumin oxidation products (COP) was performed by following the changes in the absorption spectrum immediately after a 100-fold dilution of the curcumin stock solution in TE buffer.

[3] = design: method as in PMID 25806475; conditions: cited from earlier work

## O[C@@H](CS)[C@@H](O)CS (racemic) [DTT, 1,4-Dithio-DL-threitol, reference compound]
[1]
  Recovered activity (%): 20.3 ± 1.1%

## O=C(/C=C/c1ccc(O)cc1)CC(=O)/C=C/c1ccc(O)cc1 [BDMC, bis-demethoxycurcumin]
[1]; 50 μM, diluted 30 min in TE buffer before enzyme, 30 min incubation with TGR (Fig 3)
  inhibition of the enzyme activity: no inhibition was observed
[1]
  inhibition at 200 µM: 100%

## COc1cc(/C=C/C(O)=C/C(=O)/C=C/c2ccc(O)cc2)ccc1O [DMC, demethoxycurcumin]
[2]; 50 μM in TE buffer, 100 μM NADPH, absorbance at 426 nm
  effect of NADPH on the stability: no effect
[1]
  inhibition at 200 µM: 65%
[3]
  time after dilution at which the final product of oxidative transformation was achieved: 48 h

## N[C@@H](CCC(=O)N[C@@H](CS)C(=O)NCC(=O)O)C(=O)O [GSH, reduced glutathione, reference compound]
[1]
  Recovered activity (%): 14.7 ± 1.0%

## COc1cc(/C=C/C(=O)CC(=O)/C=C/c2ccc(O)c(OC)c2)ccc1O [curcumin, (1E, 6E)-1,7-bis (4-hydroxy-3-methoxyphenyl)-1,6-heptadiene-3,5-dione]
[2]; 50 μM in TE buffer pH 7.8, 30 min incubation, in the absence of NADPH
  drop in the absorbance at 426 nm: 82%
[2]; 50 μM in TE buffer pH 7.8, 30 min incubation, in the presence of 100 μM NADPH
  diminution in the absorbance at 426 nm: 25%
[1]; 50 μM diluted in TE buffer in the absence of NADPH (Fig 4a)
  dilution time at which the maximal inhibitory ability was reached: 15 min
[1]; 50 μM diluted in TE buffer in the presence of 100 μM NADPH (Fig 4b)
  inhibition of the enzyme activity: no inhibition
[1]; 50 μM diluted in TE buffer without NADPH, after 4 h incubation (Fig 4a grey line), read-out: activity relative to control
  remaining activity at 50 µM: 80%
[1]; 50 μM, diluted 30 min in TE buffer before enzyme, 1 min incubation with the enzyme (Fig 3a)
  GSSG reductase activity: no GSSG reductase activity was detected
[1]
  inhibition at 200 µM: 10%

## COc1cc(/C=C/C(=O)O)ccc1O [ferulic acid]
[1]
  IC50: 465 µM

## COc1cc(/C=C/C=O)ccc1O [ferulic aldehyde]
[1]
  IC50: 180 µM
